Experimental data: paper PMC3580847 (Biochemistry, 2013)

Tests used:
Format in all cases: cell-based, Human
U2OS cells = assay: Proliferation assay; settings: 2 h treatment in DMEM pH 6.0 or 7.4, MTS at 48 h
M4A4 cells = assay: Proliferation assay; settings: 2 h treatment in DMEM pH 6.0 or 7.4, MTS at 48 h
MDA-MB-231 cells = assay: Proliferation assay; settings: 2 h treatment in DMEM pH 6.0 or 7.4, MTS at 48 h
HeLa cells = system: HeLa cells

Compound	inhibition of cell proliferation / toxicity (U2OS cells)	inhibition of cell proliferation / toxicity (U2OS cells; listed as Amanitin)	inhibition of cell proliferation / toxicity (M4A4 cells)	inhibition of cell proliferation / toxicity (M4A4 cells; listed as Amanitin)	inhibition of cell proliferation / toxicity (MDA-MB-231 cells)	inhibition of cell proliferation / toxicity (MDA-MB-231 cells; listed as Amanitin)	plasma membrane staining with AnnexinV-FITC (HeLa cells)
CC[C@H](C)[C@@H]1NC(=O)CNC(=O)[C@@H]2Cc3c([nH]c4cc(O)ccc34)[S@+]([O-])C[C@H](NC(=O)CNC1=O)C(=O)N[C@@H](CC(N)=O)C(=O)N1C[C@H](O)C[C@H]1C(=O)N[C@@H]([C@@H](C)[C@@H](O)CO)C(=O)N2 [amanitin, α-Amanitin]	no toxicity was observed	no effect on proliferation	no toxicity was observed	no effect on proliferation	no toxicity was observed	no effect on proliferation	
CN[C@@H]1C[C@H]2O[C@@](C)([C@@H]1OC)n1c3ccccc3c3c4c(c5c6ccccc6n2c5c31)C(=O)NC4 [staurosporine]							stained with AnnexinV-FITC
